We go through 14 compounds from patent US9266939B2, “Compositions comprising natriuretic peptides and methods of use thereof” (Alexion Pharmaceuticals, Inc., priority 2010, dated 2016).

The target in series [1] is T1, neutral endopeptidase (NEP) (Homo sapiens, UniProt P08473).
For series [2], the target named is T1, neutral endopeptidase (NEP). The series is described as follows: in vitro. The conditions noted are these: isolated enzyme neprilysin, pH 7.5.
Series [3] deals with T2, NPR-B (Homo sapiens, UniProt P20594).
T2 sequence (P20594 23-1047): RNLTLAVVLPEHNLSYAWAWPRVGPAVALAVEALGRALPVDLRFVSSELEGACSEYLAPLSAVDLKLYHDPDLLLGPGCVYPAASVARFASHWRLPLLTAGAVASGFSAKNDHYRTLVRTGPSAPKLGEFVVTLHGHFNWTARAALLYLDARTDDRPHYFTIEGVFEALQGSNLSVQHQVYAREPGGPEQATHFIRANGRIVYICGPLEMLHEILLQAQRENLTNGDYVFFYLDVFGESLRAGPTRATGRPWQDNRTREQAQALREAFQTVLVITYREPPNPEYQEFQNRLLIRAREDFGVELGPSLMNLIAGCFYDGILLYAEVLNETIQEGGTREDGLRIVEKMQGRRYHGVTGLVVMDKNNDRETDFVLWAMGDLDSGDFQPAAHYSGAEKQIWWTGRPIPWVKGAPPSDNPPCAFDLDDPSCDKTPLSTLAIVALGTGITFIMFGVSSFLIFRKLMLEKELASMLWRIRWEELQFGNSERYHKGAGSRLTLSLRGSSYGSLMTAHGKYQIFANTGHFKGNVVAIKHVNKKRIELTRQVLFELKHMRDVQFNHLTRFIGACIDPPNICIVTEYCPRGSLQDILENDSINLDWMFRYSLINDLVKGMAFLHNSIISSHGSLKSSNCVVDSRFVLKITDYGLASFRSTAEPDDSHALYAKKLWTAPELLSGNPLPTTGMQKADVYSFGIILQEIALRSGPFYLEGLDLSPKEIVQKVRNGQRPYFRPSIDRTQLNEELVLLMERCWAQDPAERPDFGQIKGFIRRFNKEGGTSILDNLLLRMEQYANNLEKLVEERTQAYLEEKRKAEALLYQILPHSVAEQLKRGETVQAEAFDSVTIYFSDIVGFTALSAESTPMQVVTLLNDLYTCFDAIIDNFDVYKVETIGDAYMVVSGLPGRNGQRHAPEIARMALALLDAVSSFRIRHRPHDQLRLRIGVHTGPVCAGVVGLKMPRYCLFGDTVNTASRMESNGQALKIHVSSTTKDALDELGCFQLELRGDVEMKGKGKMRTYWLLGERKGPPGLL
The series is described as follows: Whole cell guanylyl cyclase (cGMP) assay, NPR-B. The format is cell-based. Further details: expressed in transfected cells. The conditions noted are these: for Emax: read-out: % Efficacy. The procedure: HEK293S cells in a semi-confluent 75 cm2 flask are transfected with 30 μg of plasmid DNA coding for the appropriate receptor, e.g., human NPR-B or NPR-A, using Lipofectamine-2000CD. Alternatively, a stable polyclonal HEK293 S cell line expressing either human NPR-B or NPR-A was used. 24 hours after transfection, cells are trypsinized and plated into 48-well plates at 1×10^5 cells/well. Guanylyl cyclase assay is carried out 24 hours post-plating. Cells are first incubated for 30 minutes at 37° C. with serum-free DMEM medium. Then, they are incubated in triplicate with or without increasing concentrations of reference or test proteins in serum-free DMEM supplemented with 1 mM IBMX and 0.5% BSA, at 37° C. for 30 minutes to one hour. CNP serves as a suitable reference for NPR-B, while ANP is a suitable reference for NPR-A. Finally, cells are washed with ice-cold PBS and solubilized in lysis buffer from Catchpoint cGMP kit (Molecular devices). Concentrations of cGMP in lysate are determined using the Catchpoint cGMP kit. Dose-response curves are analysed with GraphPad Prism 5 software using non-linear regression with four-parameter logistic equation.

Where two headings read alike, the source gives them in different places. Bridge positions count the residues as written; N and C are the ends. Ends that are not written are not given here.

T1 sequence (P08473 whole entry): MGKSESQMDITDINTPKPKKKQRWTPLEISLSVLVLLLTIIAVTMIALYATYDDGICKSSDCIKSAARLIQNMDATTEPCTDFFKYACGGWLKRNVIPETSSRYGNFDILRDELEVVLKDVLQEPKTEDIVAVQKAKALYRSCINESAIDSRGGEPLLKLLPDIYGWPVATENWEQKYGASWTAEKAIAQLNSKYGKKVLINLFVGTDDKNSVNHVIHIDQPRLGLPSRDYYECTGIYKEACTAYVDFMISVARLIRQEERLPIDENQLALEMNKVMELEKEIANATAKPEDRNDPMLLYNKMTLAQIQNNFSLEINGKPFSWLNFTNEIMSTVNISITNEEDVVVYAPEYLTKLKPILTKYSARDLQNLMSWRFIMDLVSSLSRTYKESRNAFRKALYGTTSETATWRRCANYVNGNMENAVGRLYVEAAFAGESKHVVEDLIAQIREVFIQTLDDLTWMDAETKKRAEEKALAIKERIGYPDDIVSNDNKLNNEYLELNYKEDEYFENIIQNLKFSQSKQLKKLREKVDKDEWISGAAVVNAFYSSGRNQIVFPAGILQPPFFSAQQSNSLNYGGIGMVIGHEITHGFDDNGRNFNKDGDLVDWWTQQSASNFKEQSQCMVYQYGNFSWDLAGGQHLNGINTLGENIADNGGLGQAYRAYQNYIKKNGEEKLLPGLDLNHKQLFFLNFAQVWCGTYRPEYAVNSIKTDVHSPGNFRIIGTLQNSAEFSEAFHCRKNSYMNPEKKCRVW

`CC[C@H](C)[C@@H]1NC(=O)[C@H](CCCNC(=N)N)NC(=O)[C@H](CC(=O)O)NC(=O)[C@H](CC(C)C)NC(=O)[C@H](CCCCN)NC(=O)[C@H](CC(C)C)NC(=O)CNC(=O)[C@H](Cc2ccccc2)NC(=O)[C@@H](NC(=O)CNC(=O)[C@H](CCCCN)NC(=O)[C@H](CO)NC(=O)[C@H](CC(C)C)NC(=O)CN)CSSC[C@@H](C(=O)O)NC(=O)CNC(=O)[C@H](CC(C)C)NC(=O)CNC(=O)[C@H](CO)NC(=O)[C@H](CCSC)NC(=O)[C@H](CO)NC(=O)CNC1=O` [CNP22, reference compound]: in series [1], the “% of control after 240 min” value is 0% and the “Resist NEP degradation (No/Yes)” value is given as “No”. Besides, the share remaining at 4 h in series [2] stood at 0%. Further, in series [3], the “EC50 Ratio versus CNP22” value came to 1.00, the “Rescue Ratio versus CNP22” value was determined as 1 and the Emax was found to be 100%. In addition, the EC50 (in general, the concentration that produces a half-maximal response) in series [3] (EC50) was 14.7 ± 3.4 nM. Also, the midpoint of the response in series [3] (EC50 on NPR-B), the EC50, lay at 4.87 nM. Also, the Rescue range in series [3] (agonist concentration producing cGMP as 2.4 nM (lower) and 14 nM (high) CNP22) was 2.4 to 14 nM. Further, the “Rescue Ratio Average” value in series [3] (peptides, NPR-B whole cell cGMP assay) was found to be 1.

Consider “EEEEEEASTSPANPQPAASSPGLSKGCFGLKLDRIGSMSGLGC (disulfide 27-43) [C2(E6) [BC2]]”, for which the “Resist NEP degradation (No/Yes)” value in series [1] was “Yes”. The amount remaining at 4 h in series [2] is 101%. In series [3], the “EC50 Ratio versus CNP22” value amounted to 49.0, the “Rescue Ratio Average” value was 803, the “Rescue Ratio versus CNP22” value is listed as 177-1429 and the Rescue range was 424 to 20000 nM. Further, the Emax in series [3] stood at 97%. This compound came in with an EC50 in series [3] (EC50) of 720 nM.

Take “EEEEEEHGPQGQEHPNARKYKGANKKGLSKGCFGLKLDRIGSMSGLGC (disulfide 32-48) [KA1(E6)]”: the “Resist NEP degradation (No/Yes)” value in series [1] is given as “Yes”. Also, the share remaining at 4 h in series [2] amounted to 108%. For the same compound, in series [3], the “EC50 Ratio versus CNP22” value is recorded as 9.79, the “Rescue Ratio Average” value was determined as 8.2, the Rescue range lay in the range of 21.6 to 102 nM and the “potency compared with the other tested peptides” value is “more potent than the other tested peptides”. The Emax in series [3] stood at 108%. For the same compound, the EC50 in series [3] (EC50) was 144 nM.

Regarding “EEEEEEHKLRGQEHPNARKYKGANKKGLSKGCFGLKLDRIGSMSGLGC (disulfide 32-48) [KB1(E6)]”, the “Resist NEP degradation (No/Yes)” value in series [1] is “Yes”. Further, the fraction remaining at 4 h in series [2] was determined as 107%. For the same compound, in series [3], the “EC50 Ratio versus CNP22” value amounted to 5.75, the “Rescue Ratio Average” value turned out to be 5.6, the “Rescue Ratio versus CNP22” value is listed as 5.6-5.6 and the Rescue range lay within 13.4 to 78.1 nM. Besides, in series [3], the “potency compared with the other tested peptides” value is reported as “more potent than the other tested peptides” and the Emax was 109%. This compound had an EC50 in series [3] (EC50) of 84.5 nM.

Take “EEEEEEPSSAAPQPNAPSTSAGLSKGCFGLKLDRIGSMSGLGC (disulfide 27-43) [C3(E6) [BC3]]”: in series [1], the “Resist NEP degradation (No/Yes)” value is reported as “Yes”. For the same compound, the share remaining at 4 h in series [2] stood at 100%. Moreover, in series [3], the “EC50 Ratio versus CNP22” value is 67.4, the “Rescue Ratio Average” value was 199, the “Rescue Ratio versus CNP22” value was 117-281 and the Rescue range lay within 280 to 3927 nM. For the same compound, the Emax in series [3] came out at 67%. In addition, the EC50 in series [3] (EC50) was 990 nM.

As to “EEEEEESGGGGSGGGGSGGGGGLSKGCFGLKLDRIGSMSGLGC (disulfide 27-43) [C1(E6) [BC1]]”, the “Resist NEP degradation (No/Yes)” value in series [1] was “Yes”. Moreover, the amount remaining at 4 h in series [2] was 99%. For the same compound, in series [3], the “EC50 Ratio versus CNP22” value worked out at 118, the “Rescue Ratio Average” value was determined as 122, the “Rescue Ratio versus CNP22” value was 120-124 and the Rescue range fell in the range of 289 to 1733 nM. Besides, in series [3], the Emax was 97%. The EC50 in series [3] (EC50) was determined as 1740 nM.

As for “EEEEEESGGGGSGGGKGANKKGLSKGCFGLKLDRIGSMSGLGC (disulfide 27-43) [C4(E6) [BC4]]”, in series [1], the “Resist NEP degradation (No/Yes)” value was “Yes”. Besides, in series [2], the share remaining at 4 h was determined as 94%. Also, in series [3], the “EC50 Ratio versus CNP22” value is 20.5, the “Rescue Ratio Average” value came out at 18, the Rescue range fell in the range of 46 to 219 nM and the Emax is 136%. Moreover, the EC50 in series [3] (EC50) is 302 nM.

For the compound “EEEEEESGGGGSGGGKGANKQGLSKGCFGLKLDRIGSMSGLGC (disulfide 27-43) [C6(E6) [BC6]]”, the “Resist NEP degradation (No/Yes)” value in series [1] was “Yes”. The fraction remaining at 4 h in series [2] worked out at 98%. In addition, in series [3], the “EC50 Ratio versus CNP22” value is listed as 45.7, the “Rescue Ratio Average” value was 63, the “Rescue Ratio versus CNP22” value is listed as 55-70 and the Rescue range is 132 to 973 nM. The Emax in series [3] was 88%. Further, a half-maximal response in series [3] (EC50) (EC50) required 672 nM.

Consider “EEEEEESGGGGSGGGKGANQKGLSKGCFGLKLDRIGSMSGLGC (disulfide 27-43) [C7(E6) [BC7]]”, for which, in series [1], the “Resist NEP degradation (No/Yes)” value is given as “Yes”. Also, the fraction remaining at 4 h in series [2] was 98%. Besides, in series [3], the “EC50 Ratio versus CNP22” value amounted to 68.6, the “Rescue Ratio Average” value stood at 80, the “Rescue Ratio versus CNP22” value is 74-85 and the Rescue range is 177 to 1193 nM. Also, the Emax in series [3] stood at 95%. In series [3] (EC50), this compound returned an EC50 of 1010 nM.

As for “EEEEEESGGGGSGGGKGANQQGLSKGCFGLKLDRIGSMSGLGC (disulfide 27-43) [C9(E6) [BC9]]”, the “Resist NEP degradation (No/Yes)” value in series [1] was “Yes”. Besides, the fraction remaining at 4 h in series [2] was determined as 98%. Moreover, in series [3], the “EC50 Ratio versus CNP22” value was determined as 79.3, the “Rescue Ratio Average” value was 87, the “Rescue Ratio versus CNP22” value was 76-97 and the Rescue range was in the range of 183 to 1358 nM. Besides, the Emax in series [3] amounted to 95%. Further, the midpoint of the response in series [3] (EC50), the EC50, lay at 1170 nM.

“EEEEEESGGGGSGGGQGANKKGLSKGCFGLKLDRIGSMSGLGC (disulfide 27-43) [C8(E6) [BC8]]”: the “Resist NEP degradation (No/Yes)” value in series [1] is “Yes”. For the same compound, the share remaining at 4 h in series [2] worked out at 103%. For the same compound, in series [3], the “EC50 Ratio versus CNP22” value came to 48.9, the “Rescue Ratio Average” value is on record as 52, the “Rescue Ratio versus CNP22” value was 48-56 and the Rescue range is 116 to 779 nM. Also, in series [3], the Emax was 97%. Further, the EC50 in series [3] (EC50) was 719 nM.

“EEEEEESGGGGSGGGQGANKQGLSKGCFGLKLDRIGSMSGLGC (disulfide 27-43) [C11(E6) [BC11]]”: the “Resist NEP degradation (No/Yes)” value in series [1] was “Yes”. Further, in series [2], the fraction remaining at 4 h was found to be 102%. Besides, in series [3], the “EC50 Ratio versus CNP22” value is on record as 60.4, the “Rescue Ratio Average” value turned out to be 120, the Rescue range was in the range of 289 to 1662 nM and the Emax was determined as 95%. The same compound returned an EC50 in series [3] (EC50) of 888 nM.

With “EEEEEESGGGGSGGGQGANQKGLSKGCFGLKLDRIGSMSGLGC (disulfide 27-43) [C10(E6) [BC10]]”, the “Resist NEP degradation (No/Yes)” value in series [1] is recorded as “Yes”. For the same compound, the share remaining at 4 h in series [2] came to 102%. Also, in series [3], the “EC50 Ratio versus CNP22” value came out at 168, the “Rescue Ratio Average” value was 90, the “Rescue Ratio versus CNP22” value is 89-90 and the Rescue range is 213 to 1253 nM. In addition, the Emax in series [3] stood at 156%. For the same compound, the midpoint of the response in series [3] (EC50), the EC50, lay at 2470 nM.

Take “EEEEEESGGGGSGGGQGANQQGLSKGCFGLKLDRIGSMSGLGC (disulfide 27-43) [C5(E6) [BC5]]”: the “Resist NEP degradation (No/Yes)” value in series [1] was “Yes”. In series [2], the share remaining at 4 h worked out at 100%. For the same compound, in series [3], the “EC50 Ratio versus CNP22” value is listed as 161, the “Rescue Ratio Average” value is 138, the Rescue range lay in the range of 334 to 1899 nM and the Emax amounted to 96%. This compound also came in with an EC50 in series [3] (EC50) of 2360 nM.
